According to patent US7666906B2, “β-Benzyloxyaspartate derivatives with amino group on benzene ring” (Suntory Holdings Limited, priority 2001, dated 2010):

Experiments:
human EAAT2 = molecular target: T1, human EAAT2 (Homo sapiens, UniProt P43004); test: inhibition of [14C]glutamate uptake by human EAAT2 expressed on MDCK or COS-1 cells; type: cell-based; details: 1 μM L-[14C]glutamate, 12 minutes
T1 construct: expressed in transfected cells
Description: (§1) Well-known methods can be used to determine inhibitory activity of the compounds of the invention on glutamate transporters. For example, the compounds of the invention have been confirmed to inhibit uptake of ^14C-labeled glutamate into cells by human EAAT2 and EAAT3 stably expressed on MDCK (Madin-Darby Canine Kidney) cells or transiently expressed on COS-1 cells.
(§2) A known method (Shimamoto, K. et al., Mol. Pharmacol. 53, 195-201, 1998; Bioorg. Med. Chem. Lett. 10, 2407-2410, 2000) was used to measure the inhibitory effect on uptake of [^14C]glutamate by human EAAT2 and EAAT3 stably expressed on MDCK (Madin-Darby Canine Kidney) cells or transiently expressed on COS-1 cells. The glutamate uptake activity was measured by adding 1 μM of L-[^14C]glutamate and a prescribed concentration of sample, incubating for 12 minutes and then lysating the cells, and using a liquid scintillator to determine the radioactivity uptake. The uptake was expressed as a percentage, with 100% being the uptake with no compound (buffer alone) and 0% being the uptake with a sodium-free solution.

human EAAT3 = molecular target: T2, human EAAT3 (Homo sapiens, UniProt P43005); test: inhibition of [14C]glutamate uptake by human EAAT3 expressed on MDCK or COS-1 cells; type: cell-based; details: 1 μM L-[14C]glutamate, 12 minutes
T2 construct: expressed in transfected cells
T2 sequence (P43005 1-524): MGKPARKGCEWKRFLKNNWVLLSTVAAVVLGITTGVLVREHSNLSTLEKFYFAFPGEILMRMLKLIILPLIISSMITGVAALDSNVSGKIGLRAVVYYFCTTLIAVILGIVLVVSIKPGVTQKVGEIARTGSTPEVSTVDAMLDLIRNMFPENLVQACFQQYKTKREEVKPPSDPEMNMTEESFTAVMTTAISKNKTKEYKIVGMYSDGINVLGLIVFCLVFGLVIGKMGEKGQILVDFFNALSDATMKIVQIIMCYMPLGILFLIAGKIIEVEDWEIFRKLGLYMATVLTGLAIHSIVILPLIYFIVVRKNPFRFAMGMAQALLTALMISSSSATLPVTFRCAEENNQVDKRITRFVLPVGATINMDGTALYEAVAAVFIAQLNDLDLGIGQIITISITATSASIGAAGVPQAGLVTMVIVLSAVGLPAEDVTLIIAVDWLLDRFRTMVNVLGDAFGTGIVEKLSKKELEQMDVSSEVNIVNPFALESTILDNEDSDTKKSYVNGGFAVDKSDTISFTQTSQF
Description: as §1, §2

[1] = COS-1 cells (transiently expressed), marked *

T1 sequence (P43004 whole entry): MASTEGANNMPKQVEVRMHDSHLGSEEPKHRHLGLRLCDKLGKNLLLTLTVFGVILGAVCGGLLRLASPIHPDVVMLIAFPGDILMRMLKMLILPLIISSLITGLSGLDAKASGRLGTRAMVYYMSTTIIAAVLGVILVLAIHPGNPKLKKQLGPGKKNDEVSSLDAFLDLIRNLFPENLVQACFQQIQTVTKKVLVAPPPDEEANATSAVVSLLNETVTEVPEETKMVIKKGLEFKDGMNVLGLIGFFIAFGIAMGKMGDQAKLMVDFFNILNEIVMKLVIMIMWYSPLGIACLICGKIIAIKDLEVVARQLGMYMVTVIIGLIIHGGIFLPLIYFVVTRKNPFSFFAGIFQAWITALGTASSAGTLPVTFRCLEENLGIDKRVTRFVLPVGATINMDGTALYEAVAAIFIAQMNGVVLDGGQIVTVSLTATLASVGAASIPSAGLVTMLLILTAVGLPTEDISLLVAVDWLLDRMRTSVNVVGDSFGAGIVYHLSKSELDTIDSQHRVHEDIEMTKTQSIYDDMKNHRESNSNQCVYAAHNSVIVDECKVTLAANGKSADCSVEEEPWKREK

SMILES | IC50 (human EAAT2; stably expressed on MDCK cells) [nM] | IC50 (human EAAT3; stably expressed on MDCK cells) [nM] | IC50 (human EAAT2; [1]) [nM] | IC50 (human EAAT3; [1]) [nM]
N[C@H](C(=O)O)[C@H](OCc1cccc(NC(=O)c2ccc(OCCCCCNC(=O)CCCC[C@@H]3SC[C@@H]4NC(=O)N[C@@H]43)cc2)c1)C(=O)O [BioA-PenO-BzA-TBOA, (2S,3S)-3-[3-(N-(4-(5-biotynylaminopentyloxy)benzoyl)amino)benzyloxy]aspartic acid] | 2200 ± 520 | 1100 ± 60 |  | 
NCCC(=O)Nc1cccc(CO[C@H](C(=O)O)[C@H](N)C(=O)O)c1 [AA-TBOA, (2S,3S)-3-[3-(3-aminopropionylamino)benzyloxy]aspartic acid] | 13000 ± 1100 | 13000 ± 1100 |  | 
N[C@H](C(=O)O)[C@H](OCc1cccc(NC(=O)c2ccc(F)cc2)c1)C(=O)O [F-BzA-TBOA, (2S,3S)-3-[3-[N-(4-fluorobenzoyl)amino]benzyloxy]aspartic acid] | 22 ± 2.7 | 473 ± 13 |  | 
N#Cc1ccc(C(=O)Nc2cccc(CO[C@H](C(=O)O)[C@H](N)C(=O)O)c2)cc1 [CN-BzA-TBOA, (2S,3S)-3-[3-[N-(4-cyanobenzoyl)amino]benzyloxy]aspartic acid] | 36 ± 2.9 | 1400 ± 99 |  | 
N[C@H](C(=O)O)[C@H](OCc1ccccc1)C(=O)O [TBOA, L-threo-β-benzyloxyaspartate, reference compound] | 1400 ± 120 | 1300 ± 110 |  | 
N[C@H](C(=O)O)[C@H](OCc1cccc(NC(=O)c2ccccc2)c1)C(=O)O [BzA-TBOA, (2S,3S)-3-[3-(N-benzoylamino)benzyloxy]aspartic acid] | 55 ± 5 | 726 ± 98 |  | 
N[C@H](C(=O)O)[C@H](OCc1cccc(NC(=O)C2CCCCC2)c1)C(=O)O [CHexcA-TBOA, (2S,3S)-3-[3-(N-cyclohexylcarbonylamino)benzyloxy]aspartic acid] | 244 ± 12 | 288 ± 8 |  | 
NCCCCCOc1ccc(C(=O)Nc2cccc(CO[C@H](C(=O)O)[C@H](N)C(=O)O)c2)cc1 [A-PenO-BzA-TBOA, (2S,3S)-3-[3-(N-(4-(5-aminopentyloxy)benzoyl)amino)benzyloxy]aspartic acid] | 7300 ± 1100 | 2200 ± 200 |  | 
COc1ccc(C(=O)Nc2cccc(CO[C@H](C(=O)O)[C@H](N)C(=O)O)c2)cc1OC [DiMeO-BzA-TBOA, (2S,3S)-3-[3-[N-(3,4-dimethoxybenzoyl)amino]benzyloxy]aspartic acid] | 49 ± 3.8 | 917 ± 30 |  | 
N[C@H](C(=O)O)[C@H](OCc1cccc(NC(=O)CCNC(=O)CCCC[C@@H]2SC[C@@H]3NC(=O)N[C@@H]32)c1)C(=O)O [Bio-AA-TBOA, (2S,3S)-3-[3-(3-N-biotinylaminopropionylamino)benzyloxy]aspartic acid] | 6300 ± 390 | 10000 ± 930 |  | 
N[C@H](C(=O)O)[C@H](OCc1cccc(NC(=O)c2ccc([N+](=O)[O-])cc2)c1)C(=O)O [NO2-BzA-TBOA, (2S,3S)-3-[3-[N-(4-nitrobenzoyl)amino]benzyloxy]aspartic acid] | 14 ± 1.4 | 278 ± 32 |  | 
N[C@H](C(=O)O)[C@H](OCc1cccc(NC(=O)c2ccc(C(F)(F)F)cc2)c1)C(=O)O [CF3-BzA-TBOA, (2S,3S)-3-[3-[N-(4-trifluoromethylbenzoyl)amino]benzyloxy]aspartic acid] | 1.9 ± 0.1 | 28 ± 1.8 |  | 
Nc1cccc(CO[C@H](C(=O)O)[C@H](N)C(=O)O)c1 [A-TBOA, (2S,3S)-3-(3-aminobenzyloxy)aspartic acid] | 2100 ± 100 | 7900 ± 760 |  | 
N[C@H](C(=O)O)[C@H](OCc1cccc(NC(=O)CCCC[C@@H]2SC[C@@H]3NC(=O)N[C@@H]32)c1)C(=O)O [BioA-TBOA, (2S,3S)-3-[3-(N-biotinylamino)benzyloxy]aspartic acid] | 38000 ± 13000 | 25000 ± 2400 |  | 

Next, values leading:

IC50 (human EAAT2; stably expressed on MDCK cells) [nM] | IC50 (human EAAT3; stably expressed on MDCK cells) [nM] | IC50 (human EAAT2; [1]) [nM] | IC50 (human EAAT3; [1]) [nM] | SMILES
12 ± 0.5 | 266 ± 20 |  |  | COc1ccc(C(=O)Nc2cccc(CO[C@H](C(=O)O)[C@H](N)C(=O)O)c2)cc1 [p-MeO-BzA-TBOA, (2S,3S)-3-[3-[N-(4-methoxybenzoyl)amino]benzyloxy]aspartic acid]
145 ± 2.2 | 1000 ± 42 |  |  | COc1ccccc1C(=O)Nc1cccc(CO[C@H](C(=O)O)[C@H](N)C(=O)O)c1 [o-MeO-BzA-TBOA, (2S,3S)-3-[3-[N-(2-methoxybenzoyl)amino]benzyloxy]aspartic acid]
 |  | 111000 ± 25000 | 295000 ± 118000 | CCC(=O)Nc1ccc(CO[C@H](C(=O)O)[C@H](N)C(=O)O)cc1 [p-Pr-A-TBOA, (2S,3S)-3-[4-(N-propionylamino)benzyloxy]aspartic acid]
143 ± 7.9 | 529 ± 32 |  |  | N[C@H](C(=O)O)[C@H](OCc1cccc(NC(=O)Cc2ccccc2)c1)C(=O)O [PhAcA-TBOA, (2S,3S)-3-[3-(N-phenylacetylamino)benzyloxy]aspartic acid]
7 ± 0.5 | 128 ± 12 |  |  | N[C@H](C(=O)O)[C@H](OCc1cccc(NC(=O)c2ccc(OC(F)(F)F)cc2)c1)C(=O)O [OCF3-BzA-TBOA, (2S,3S)-3-[3-[N-(4-trifluoromethoxybenzoyl)amino]benzyloxy]aspartic acid]
1000 ± 130 | 4100 ± 670 |  |  | CC(C)(C)C(=O)Nc1cccc(CO[C@H](C(=O)O)[C@H](N)C(=O)O)c1 [Piv-A-TBOA, (2S,3S)-3-[3-(N-pivaroylamino)benzyloxy]aspartic acid]
2000 ± 210 | 7900 ± 460 |  |  | CCC(=O)Nc1cccc(CO[C@H](C(=O)O)[C@H](N)C(=O)O)c1 [Pr-A-TBOA, (2S,3S)-3-[3-(N-propionylamino)benzyloxy]aspartic acid]
21 ± 2.2 | 34 ± 19 |  |  | N[C@H](C(=O)O)[C@H](OCc1cccc(NC(=O)c2ccc(-c3ccccc3)cc2)c1)C(=O)O [Ph-BzA-TBOA, (2S,3S)-3-[3-[N-(4-phenylbenzoyl)amino]benzyloxy]aspartic acid]
37 ± 2.5 | 356 ± 12 |  |  | COc1cccc(C(=O)Nc2cccc(CO[C@H](C(=O)O)[C@H](N)C(=O)O)c2)c1 [m-MeO-BzA-TBOA, (2S,3S)-3-[3-[N-(3-methoxybenzoyl)amino]benzyloxy]aspartic acid]
1.2 ± 0.04 | 18 ± 1.6 |  |  | CCCCCCOc1ccc(C(=O)Nc2cccc(CO[C@H](C(=O)O)[C@H](N)C(=O)O)c2)cc1 [OHex-BzA-TBOA, (2S,3S)-3-[3-[N-(4-n-hexyloxybenzoyl)amino]benzyloxy]aspartic acid]
25 ± 0.5 | 182 ± 11 |  |  | CC(C)(C)c1ccc(C(=O)Nc2cccc(CO[C@H](C(=O)O)[C@H](N)C(=O)O)c2)cc1 [TBu-BzA-TBOA, (2S,3S)-3-[3-[N-(4-tert-butylbenzoyl)amino]benzyloxy]aspartic acid]
6000 ± 1400 | 7600 ± 450 |  |  | CCC(=O)NCCC(=O)Nc1cccc(COC(C(=O)O)C(N)C(=O)O)c1 [Pr-AA-TBOA, (2S,3S)-3-[3-(3-N-propionylaminopropionylamino)benzyloxy]aspartic acid]
